Laboratory results: ChEMBL document CHEMBL1201862, “PubChem BioAssay data set” (2004)
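Dose response: 5 concentrations. Exposure: 48 h. Format: 96-well plates. Endpoint: linear interpolation; highest concentration if not reached. GI50 = concentration required for 50% inhibition of growth.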 Calls of active or inactive are those of the source. Rule as the data show it: active = GI50 up to about 1.1 µM and inactive = higher.

Assays:
Test in all cases: NCI tumour cell line growth inhibition, 48 h
SK-OV-3 = tested on: SK-OV-3
RXF 393 = tested on: RXF 393
U-251 = tested on: U-251
SW-620 = tested on: SW-620
ACHN = tested on: ACHN
M14 = tested on: M14
SF-539 = tested on: SF-539
NCI-H23 = tested on: NCI-H23
KM12 = tested on: KM12
SR = tested on: SR
CAKI-1 = tested on: CAKI-1
SF-295 = tested on: SF-295
HCC 2998 = tested on: HCC 2998
RPMI-8226 = tested on: RPMI-8226
CCRF-CEM = tested on: CCRF-CEM
UACC-62 = tested on: UACC-62
MCF7 = tested on: MCF7

SMILES	GI50 (SK-OV-3)	GI50 (RXF 393)	GI50 (U-251)	GI50 (SW-620)	GI50 (ACHN)	GI50 (M14)	GI50 (SF-539)	GI50 (NCI-H23)	GI50 (KM12)	GI50 (SR)	GI50 (CAKI-1)	GI50 (SF-295)	GI50 (HCC 2998)	GI50 (RPMI-8226)	GI50 (CCRF-CEM)	GI50 (UACC-62)	GI50 (MCF7)
OCCN1CCN(CC/C=C2/c3ccccc3Sc3ccc(Cl)cc32)CC1	15.8 µM (inactive)	13.1 µM (inactive)	12.9 µM (inactive)	12 µM (inactive)	16 µM (inactive)	2.3 µM (inactive)	12.9 µM (inactive)	15.7 µM (inactive)	9.57 µM (inactive)	12.1 µM (inactive)	10.5 µM (inactive)	18.4 µM (inactive)	11.3 µM (inactive)	9.82 µM (inactive)	8.41 µM (inactive)	2.59 µM (inactive)	
O=C(O)Cc1cc(=O)[nH]c2c1/C(=N/O)CCC2	> 100 µM (inactive)	> 100 µM (inactive)	> 100 µM (inactive)	> 100 µM (inactive)	> 100 µM (inactive)	> 100 µM (inactive)	> 100 µM (inactive)	> 100 µM (inactive)	> 100 µM (inactive)	> 100 µM (inactive)		> 100 µM (inactive)	> 100 µM (inactive)	> 100 µM (inactive)	> 100 µM (inactive)		
Cc1cc2nc3c(=O)n(C)c(=O)nc-3n(-c3ccc(Cl)cc3)c2cc1C	25.6 µM (inactive)		9.66 µM (inactive)	4.2 µM (inactive)	11.4 µM (inactive)	3.29 µM (inactive)	11.2 µM (inactive)	3.81 µM (inactive)	16 µM (inactive)		16.4 µM (inactive)	12.2 µM (inactive)	3.95 µM (inactive)	6.37 µM (inactive)	13.6 µM (inactive)	2.91 µM (inactive)	
CCOC(=O)c1sc(Nc2cc(Cl)ccc2Cl)nc1C		> 100 µM (inactive)	> 100 µM (inactive)	> 100 µM (inactive)	35.5 µM (inactive)		> 100 µM (inactive)	34.4 µM (inactive)	> 100 µM (inactive)	52.5 µM (inactive)		64 µM (inactive)	> 100 µM (inactive)	53.2 µM (inactive)			
C=C1C2Oc3ccccc3C1N(c1ccccc1)O2 (stereo unspecified)	64.3 µM (inactive)	30.9 µM (inactive)	27.2 µM (inactive)	34.8 µM (inactive)	37.2 µM (inactive)	22.1 µM (inactive)	23.8 µM (inactive)	> 10 µM (inactive)	17.9 µM (inactive)	30.5 µM (inactive)	40.8 µM (inactive)	23.1 µM (inactive)	31 µM (inactive)	23.7 µM (inactive)	21.3 µM (inactive)		
CCCCc1c2c(nc3c1CCCC3=O)C(=O)CCC2	> 100 µM (inactive)	> 100 µM (inactive)	> 100 µM (inactive)	> 100 µM (inactive)	> 100 µM (inactive)	> 100 µM (inactive)	> 100 µM (inactive)	> 100 µM (inactive)	> 100 µM (inactive)	> 100 µM (inactive)		> 100 µM (inactive)	> 100 µM (inactive)	> 100 µM (inactive)	> 100 µM (inactive)	> 100 µM (inactive)	
CCCCCCCCCCNC(=S)OC	> 100 µM (inactive)	33.7 µM (inactive)	33.1 µM (inactive)	42.8 µM (inactive)	33.6 µM (inactive)	63.1 µM (inactive)	64.7 µM (inactive)	> 100 µM (inactive)		13.7 µM (inactive)	28.5 µM (inactive)	55.5 µM (inactive)	43.6 µM (inactive)	13.2 µM (inactive)	24.3 µM (inactive)	25 µM (inactive)	
Cc1ccc(C)c(N2C(=O)C(=O)C(c3nc4ccccc4o3)/C(=N\NC(=O)c3ccccc3O)C2=O)c1 (stereo unspecified)	87.1 µM (inactive)		24.4 µM (inactive)	29.6 µM (inactive)	12 µM (inactive)	32.3 µM (inactive)	19.1 µM (inactive)	10.7 µM (inactive)		30.1 µM (inactive)	3.75 µM (inactive)	56.2 µM (inactive)	67.3 µM (inactive)	37.6 µM (inactive)	4.09 µM (inactive)	5.68 µM (inactive)	
Cc1cc(N(CCC#N)CCC#N)ccc1/C=C1/N=C(c2ccccc2)N(N)C1=O	> 100 µM (inactive)		63.7 µM (inactive)	85.5 µM (inactive)	> 100 µM (inactive)	> 100 µM (inactive)	60.8 µM (inactive)	56.9 µM (inactive)	> 100 µM (inactive)		98.2 µM (inactive)	46.1 µM (inactive)	> 100 µM (inactive)	> 100 µM (inactive)	61.7 µM (inactive)	99.8 µM (inactive)	
CCN(CC)CCCNC(=O)C1COc2cc(-c3cc(=O)c4ccccc4o3)ccc2O1 (stereo unspecified)	> 100 µM (inactive)	39.8 µM (inactive)	37.8 µM (inactive)	48.5 µM (inactive)	51.4 µM (inactive)	22.1 µM (inactive)	19.5 µM (inactive)	> 100 µM (inactive)		19.9 µM (inactive)	> 100 µM (inactive)	96.8 µM (inactive)	42.2 µM (inactive)	> 100 µM (inactive)	43.8 µM (inactive)	45.9 µM (inactive)	
O=C(O)/C(Cl)=C(\Cl)C(=O)c1ccccc1	> 100 µM (inactive)	> 100 µM (inactive)	> 100 µM (inactive)	> 100 µM (inactive)	> 100 µM (inactive)	> 100 µM (inactive)	> 100 µM (inactive)	> 100 µM (inactive)	> 100 µM (inactive)	> 100 µM (inactive)	> 100 µM (inactive)	> 100 µM (inactive)	> 100 µM (inactive)		> 100 µM (inactive)	> 100 µM (inactive)	
CC(=O)c1cc([N+](=O)[O-])ccc1OCC(=O)O	> 100 µM (inactive)	> 100 µM (inactive)	> 100 µM (inactive)	> 100 µM (inactive)	> 100 µM (inactive)	> 100 µM (inactive)	> 100 µM (inactive)	> 100 µM (inactive)	> 100 µM (inactive)		> 100 µM (inactive)	> 100 µM (inactive)	> 100 µM (inactive)	> 100 µM (inactive)	> 100 µM (inactive)	> 100 µM (inactive)	
CC(C)c1cccc2sc(NC(=O)C(=O)CC(=O)c3ccc(F)cc3)nc12	> 100 µM (inactive)	> 100 µM (inactive)	> 100 µM (inactive)	> 100 µM (inactive)	> 100 µM (inactive)	> 100 µM (inactive)	> 100 µM (inactive)	> 100 µM (inactive)	> 100 µM (inactive)		> 100 µM (inactive)	> 100 µM (inactive)		> 100 µM (inactive)	> 100 µM (inactive)	> 100 µM (inactive)	
CC1=C(C(=O)NCc2ccccc2)C(c2ccc(C3C(C(=O)NCc4ccccc4)=C(C)NC(C)=C3C(=O)NCc3ccccc3)cc2)C(C(=O)NCc2ccccc2)=C(C)N1		16.6 µM (inactive)	3.96 µM (inactive)	10.2 µM (inactive)	15.6 µM (inactive)	11.8 µM (inactive)	2.13 µM (inactive)	14.7 µM (inactive)	11.4 µM (inactive)	2.3 µM (inactive)	14 µM (inactive)	17.9 µM (inactive)	17.1 µM (inactive)	6.65 µM (inactive)	3.39 µM (inactive)	7.91 µM (inactive)	
CC(Oc1ccc(OCC2CCCCC2)cc1)C(=O)N(CCO)CCO (stereo unspecified)	> 100 µM (inactive)	> 100 µM (inactive)	> 100 µM (inactive)		> 100 µM (inactive)	> 100 µM (inactive)	23.6 µM (inactive)	> 100 µM (inactive)	> 100 µM (inactive)			> 100 µM (inactive)	32.9 µM (inactive)		> 100 µM (inactive)	> 100 µM (inactive)	
Clc1ccc(C[P+](c2ccccc2)(c2ccccc2)c2ccccc2)cc1Cl	7.35 µM (inactive)		1.63 µM (inactive)	2.93 µM (inactive)	13.1 µM (inactive)	2.6 µM (inactive)	4.4 µM (inactive)	2.62 µM (inactive)	2.69 µM (inactive)	2.61 µM (inactive)	2.57 µM (inactive)	10.3 µM (inactive)	2.46 µM (inactive)		3.07 µM (inactive)	1.49 µM (inactive)	
CCCCC1(C2c3ccccc3Oc3ccccc32)C(=O)N(c2ccccc2)N(c2ccccc2)C1=O	> 100 µM (inactive)	19.9 µM (inactive)	31.3 µM (inactive)	56.6 µM (inactive)			> 100 µM (inactive)	32.1 µM (inactive)	63.5 µM (inactive)		11.6 µM (inactive)	> 92.7 µM (inactive)	> 41.1 µM (inactive)	27.7 µM (inactive)	22.5 µM (inactive)	> 89.3 µM (inactive)	55 µM (inactive)
C=C(C=O)[C@@H]1C2OC(=O)C(=C)[C@@H]2CC(O)[C@@]1(C)CC (stereo partly specified)	> 60.5 µM (inactive)	2.11 µM (inactive)	11.7 µM (inactive)	3.16 µM (inactive)	13.7 µM (inactive)	4.83 µM (inactive)	9.29 µM (inactive)	7.23 µM (inactive)	13.1 µM (inactive)	3.4 µM (inactive)	9.38 µM (inactive)	22.4 µM (inactive)	16.6 µM (inactive)	2.93 µM (inactive)	2.08 µM (inactive)	4.12 µM (inactive)	
Cn1c(/C=C/CO)c(CO)c2c1C(=O)C=C(N1CC1)C2=O [APAZIQUONE]	< 0.0134 µM (active)	< 0.01 µM (active)	< 0.01 µM (active)	< 0.01 µM (active)			< 0.01 µM (active)		< 0.01 µM (active)		< 0.01 µM (active)	< 0.01 µM (active)	< 0.01 µM (active)	0.0172 µM (active)	0.184 µM (active)	< 0.01 µM (active)	< 0.01 µM (active)
